ChEMBL document CHEMBL1201862, “PubChem BioAssay data set” (2004)
“And” between values parts separate entries of the source, which are not always exact repeats. Equal values may be shown once.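 Assay format: 96-well plates, 48-hour exposure. Abbreviation: GI50, concentration required for 50% inhibition of growth.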 The source made the active and inactive calls. Cut-off read from the data, not from the text of the source: active = GI50 up to about 1.1 µM and inactive = higher.

What was measured:
Assay in all cases: inhibition of tumour cell growth, NCI panel, 48 h
[1] = test system: MCF7
[2] = test system: TK-10
[3] = test system: UO-31
[4] = test system: SF-268
[5] = test system: SK-OV-3
[6] = test system: CCRF-CEM
[7] = test system: MDA-N
[8] = test system: NCI-H23
[9] = test system: 786-0
[10] = test system: M14
[11] = test system: HOP-62
[12] = test system: OVCAR-3
[13] = test system: PC-3
[14] = test system: BT-549
[15] = test system: MDA-MB-435
[16] = test system: SK-MEL-2
[17] = test system: T47D
[18] = test system: U-251
[19] = test system: RXF 393

Measured: GI50

COc1ccccc1C1SCC(=O)N1c1ccc(-c2ccc(-n3c(-c4ccccc4)nc4ccccc4c3=O)cc2)cc1 (stereo not drawn)
inactive: [1] > 100 µM | [2] > 100 µM | [3] 29.9 µM | [4] > 100 µM | [5] > 100 µM | [6] > 100 µM | [7] > 100 µM | [8] > 100 µM | [9] > 100 µM | [10] > 100 µM | [11] > 100 µM | [12] > 100 µM | [13] > 100 µM | [14] > 100 µM | [15] > 100 µM | [16] > 100 µM | [17] 91 µM | [18] > 100 µM

COC1CC(C)(NC(C)=O)C2OC(c3ccccc3)OCC2O1 (stereo not drawn)
inactive: [19] > 100 µM | [1] > 100 µM | [2] > 100 µM | [3] > 100 µM | [4] > 100 µM | [5] > 100 µM | [6] > 100 µM | [7] > 100 µM | [8] > 100 µM | [9] > 100 µM | [10] > 100 µM | [11] > 100 µM | [12] > 100 µM | [13] > 100 µM | [14] > 100 µM | [15] > 100 µM | [17] > 100 µM | [18] > 100 µM

COC(=O)C1OC(O[C@H]2CC[C@]3(C)[C@H]4CC=C5[C@@H]6CC(C)(C)CC[C@]6(C(=O)OC6OCC(O)C(O)C6OC6OC(C)C(OC7OCC(O)C(OC8OCC(O)C(O)C8O)C7O)C(OC7OCC(O)C(O)C7O)C6O)CC[C@@]5(C)[C@]4(C)CC[C@H]3C2(C)C)C(O)C(OC2OCC(O)C(O)C2O)C1O (stereo partly drawn)
inactive: [1] 4.71 µM and 3.27 µM | [2] 7.35 µM and 11.9 µM | [3] 2.01 µM and 1.9 µM | [4] 6.53 µM and 8.45 µM | [5] 12.8 µM and 16.6 µM | [6] 11.3 µM and 10.6 µM | [7] 2.02 µM and 1.79 µM | [8] 4.52 µM and 3.81 µM | [9] 5.01 µM and 7.71 µM | [10] 1.95 µM and 2.25 µM | [12] 9.25 µM and 7.82 µM | [13] 4.46 µM and 4.32 µM | [14] 3.01 µM and 2.62 µM | [15] 2.13 µM and 2.14 µM | [16] 2.22 µM and 2.93 µM | [17] 3.45 µM and 3.29 µM | [18] 7.41 µM and 6.87 µM

Cc1n[nH]c(=O)n1N1C(=O)c2ccccc2C1=O
inactive: [1] > 100 µM | [2] > 100 µM | [3] > 100 µM | [6] > 100 µM | [7] > 100 µM | [8] > 100 µM | [9] > 100 µM | [10] > 100 µM | [11] > 100 µM | [12] > 100 µM | [13] > 100 µM | [14] > 100 µM | [15] > 100 µM | [16] > 100 µM | [17] > 100 µM | [18] > 100 µM

CC(=O)OC[C@@H]1[C@H]2CC[C@]3(C)[C@@H](OC(C)=O)CC[C@H]3[C@@H]2CC[C@H]1C1(C)SCCS1
inactive: [19] > 25 µM | [1] > 25 µM | [2] > 25 µM | [3] > 25 µM | [4] > 25 µM | [6] > 25 µM | [7] > 25 µM | [8] > 25 µM | [9] > 25 µM | [10] > 25 µM | [11] > 25 µM | [12] > 25 µM | [13] > 25 µM | [14] > 25 µM | [15] > 25 µM | [17] > 25 µM | [18] > 25 µM

O=C(O)CCC[C@]1(O)O[C@@]2(CCCC2=O)[C@]2(O)CCC[C@@]21O
inactive: [19] > 100 µM | [1] > 100 µM | [2] > 100 µM | [3] > 100 µM | [4] > 100 µM | [7] > 100 µM | [8] > 100 µM | [9] > 100 µM | [10] > 100 µM | [11] > 100 µM | [12] > 100 µM | [13] > 100 µM | [14] > 100 µM | [16] > 100 µM | [17] > 100 µM | [18] > 100 µM

CCCCCCCCCCCCCCCCC(=O)NCC(=O)NCC(=O)NC(Cc1ccccc1)C(=O)Oc1ccc([N+](=O)[O-])cc1 (stereo not drawn)
inactive: [19] 23.4 µM | [1] 48.4 µM | [2] 71 µM | [3] 67.9 µM | [4] 23.3 µM | [6] 22 µM | [7] 48.5 µM | [8] 73.1 µM | [9] 27.5 µM | [10] 21.4 µM | [11] 22 µM | [12] > 100 µM | [13] 31.5 µM | [14] 16.7 µM | [15] 58.5 µM | [16] 48.4 µM | [17] 30.7 µM | [18] 18.4 µM

COC(=O)c1cc2c(cc1CC1Cc3cc4c(cc3C1=O)CCC4)CCC2 (stereo not drawn)
inactive: [1] 34 µM | [2] 73.1 µM | [3] > 100 µM | [4] > 100 µM | [5] 70.3 µM | [6] 21.5 µM | [7] 18.2 µM | [8] 41.6 µM | [9] 83.8 µM | [10] 66.8 µM | [11] > 100 µM | [12] 57.4 µM | [13] 10.7 µM | [14] 40.1 µM | [15] 24.7 µM | [16] 36.4 µM | [17] 24.9 µM | [18] 46 µM

CC1=CC(C)C(O)C(C)/C=C\C(O)C/C=C(/C)C(=O)CC(O)C(C)\C=C/C=C\C=C/C(=O)NC2=C(O)C(=O)c3c(cc(C)c(O)c3C1=O)C2=O (stereo not drawn)
inactive: [1] 25.8 µM | [2] > 100 µM | [3] > 100 µM | [4] 94.4 µM | [6] 69.2 µM | [7] > 100 µM | [8] > 100 µM | [9] > 100 µM | [10] > 100 µM | [11] > 100 µM | [12] > 100 µM | [13] > 100 µM | [14] > 100 µM | [15] > 100 µM | [16] > 100 µM | [17] > 100 µM | [18] > 100 µM

O=C1CSCC(=O)Nc2ccccc2N1
inactive: [19] > 100 µM | [2] > 100 µM | [3] > 100 µM | [4] > 100 µM | [5] > 100 µM | [6] > 100 µM | [7] > 100 µM | [8] > 100 µM | [9] > 100 µM | [10] > 100 µM | [11] > 100 µM | [12] > 100 µM | [13] > 100 µM | [14] > 100 µM | [15] > 100 µM | [16] > 100 µM | [17] > 100 µM | [18] > 100 µM

CC1(C)COP(=S)(c2ccccn2)O[C@@H]1c1ccccc1 (stereo partly drawn)
inactive: [19] 62.2 µM | [1] 98.6 µM | [2] > 100 µM | [3] 50.8 µM | [4] > 100 µM | [5] > 100 µM | [6] 42.1 µM | [7] 74.6 µM | [8] 69.5 µM | [9] > 100 µM | [10] > 100 µM | [11] > 100 µM | [13] 88.7 µM | [14] > 100 µM | [15] > 100 µM | [17] 22.3 µM | [18] > 100 µM

COC1(CCO)CC=CCC1(CCO)OC (stereo not drawn)
inactive: [1] > 100 µM | [2] > 100 µM | [3] > 100 µM | [4] > 100 µM | [5] > 100 µM | [6] > 100 µM | [7] > 100 µM | [9] > 100 µM | [10] > 100 µM | [11] > 100 µM | [12] > 100 µM | [13] > 100 µM | [14] > 100 µM | [16] > 100 µM | [17] > 100 µM

O=[N+]([O-])c1cc(/N=N/c2c(O)ccc3cc(S(=O)(=O)O)ccc23)c(O)c([N+](=O)[O-])c1
inactive: [19] > 100 µM | [2] > 100 µM | [3] 39.4 µM | [4] > 100 µM | [5] > 100 µM | [6] 18.9 µM | [7] > 100 µM | [8] > 100 µM | [9] > 100 µM | [10] > 100 µM | [11] > 100 µM | [12] 63.1 µM | [13] 90.6 µM | [14] > 100 µM | [15] > 100 µM | [16] > 100 µM | [17] > 100 µM | [18] > 100 µM

O/N=N\c1nc(-c2ccccn2)nc2ccccc12
inactive: [1] 4.76 µM | [2] 17.4 µM | [3] 18.7 µM | [4] 11.7 µM | [5] 55.5 µM | [7] 19.6 µM | [8] 35.2 µM | [9] 3.68 µM | [10] 4.09 µM | [11] 1.98 µM | [13] 11.7 µM | [14] 20.8 µM | [16] 4.68 µM | [17] 2.83 µM | [18] 17.5 µM
active: [6] 0.441 µM | [12] 0.743 µM

COc1ccccc1-c1cc(=O)c2ccc(OC)c(OC)c2o1
inactive: [19] 27.1 µM | [1] 45.9 µM | [2] 46.6 µM | [3] 30.2 µM | [4] > 100 µM | [5] 66.7 µM | [6] > 100 µM | [7] 48.2 µM | [8] > 100 µM | [9] 89.1 µM | [10] 64.3 µM | [11] > 100 µM | [12] 31.6 µM | [14] 76.9 µM | [15] 46 µM | [16] 70.6 µM | [17] 19.3 µM | [18] 46.1 µM
